Measured values: patent US20260256734A1, “COMPOSITIONS COMPRISING SILYMARIN (OR) CURCUMIN AND METFORMIN, METHODS AND APPLICATIONS THEREOF” (ACUBIOSYS PRIVATE LIMITED, priority 2022, published 2026)

Experiments:
[1] = test system: inflammatory markers (IL-17, IL-1β and IL-23) in IMQ-induced differentiated HaCaT cells; experiment: In vitro IMQ-induced psoriatic model, inflammatory markers in conditioned media; format: cell-based; details: IMQ 100 μM, formulation in culture media 48 hr, mean ± S.D.
From the text: This study was designed to investigate the effect of a Metf+SMR and Metf+SMR hydro-gel formulation on an IMQ-induced psoriasis-like mouse model. The composition of the hydrogel formulation prepared by using 1.5% crosslinked polyacrylic acid polymer and 1.5% triethanolamine is provided. In doing so, the Applicant expected to obtain supportive evidence of a role for the formulation in treating psoriasis. For that the Applicant has developed hydrogel-based formulations: 1. Metformin and 2. Metformin-silybin (Metf+SMR) 3. Metformin-curcumin (Metf+CMR) and studied invitro cell toxicity in A431 cells by MTT assay and invitro IMQ-induced psoriatic modal using HaCaT cells and determined the inflammatory markers (IL-1β, IL-23 and IL-17).
To set up an efficient and consistent model for psoriasis in vitro, differentiated HaCaT cells were used to screen our test formulations. HaCaT cells were incubated with 2 mM calcium chloride (CaCl2) to achieve differentiation. Induction of psoriatic-like inflammation was achieved by treating the cells with Imiquimod (IMQ) ([…]). The differentiation and inflammation were confirmed by microscopic images. After inflammation, the cells were treated with different formulation dissolved in culture media and incubated for 48 hr. Clobetasol cream formulation was used as a positive control. After incubation, the conditioned media was collected and used for estimation of inflammatory markers (IL-17, IL-1β and IL-23).

[2] = test system: IMQ-induced psoriasis model in C57BL/6 Mice; experiment: IMQ induced psoriatic plaque model, topical hydrogel treatment; format: in vivo
Protocol: Hair was shaved along the back of the anesthetized mouse from shoulder to hip by using electric clippers or depilatory cream. Psoriasis-like lesions were induced by a daily topical application of a commercially available IMQ cream (62.5 mg/day for 5 days D1-D5) on the shaved back skin of C57BL/6 mice.
Animals were randomly assigned to the different groups after reaching a maximum score of 4 with respect to erythema, scale, and thickness. Animals that didn't score 4 were excluded from the experiment. Sham psoriasis animals were administered with Vaseline cream; IMQ animals, were only challenged with imiquimod cream, and IMQ animals were treated with a hydrogel that was topically applied using a nylon mesh for even distribution of the hydrogel, for the whole duration of the experiment.
To score the severity of inflammation of the back skin, an objective scoring system was developed based on the clinical Psoriasis Area and severity index (PASI), except that for the mouse model the affected skin area is not taken into account in the overall score. Erythema, scaling, and thickening was scored independently on a scale from 0 to 4:0, none; 1, slight; 2, moderate; 3, marked; 4, very marked. The level of erythema was scored using a scoring table with red taints. The cumulative score (erythema plus scaling plus thickening) served as a measure of the severity of inflammation (scale 0-12).
• 0: None; 1: Slight; 2: Moderate; 3: Marked; 4: Very Marked.
One of the important characteristic feature of psoriasis and the psoriasis-like skin inflammation was abnormal increase of epidermal skin thickness which was measured by vernier calipers.
The IMQ induced, skin tissue sections (H&E stain) were collected after ten days (D1-D10) from all groups.

**Q.** `CC(C)Cn1cnc2c(N)nc3ccccc3c21` [IMQ, Imiquimod] was tested. Which “IL-1β (pg/mL), mean concentration” value [1] did it give?
**A.** The value was 93.63 ± 2.87 pg/mL.

**Q.** What about the “IL-17 (pg/mL), mean concentration” value [1] of the same molecule?
**A.** The value was 99.82 ± 3.03 pg/mL.

**Q.** What about the “IL-23 (pg/mL), mean concentration” value [1] of the same molecule?
**A.** Its value is 98.73 ± 3.27 pg/mL.

**Q.** And the “epidermal skin thickness with IMQ only” value ([2]; increased from 1.15 mm, IMQ only applied topically)?
**A.** The value was 2.22 mm.

**Q.** What about the “cumulative score on day 5” value ([2]; scale 0-12, day 5, IMQ only) of the same molecule?
**A.** The value was 12.

**Q.** And the “cumulative score (erythema+scaling+skin thickness) on day 10” value ([2]; scale 0-12, day 10)?
**A.** The value was 12.

**Q.** And the spleen size (spleen index) ([2]; treatment D6-D10)?
**A.** Its spleen size (spleen index) is 15 mg/g.
